Measurements taken from patent EP4768499A1, “MACROCYCLIC PEPTIDE COMPOUND HAVING CELL MEMBRANE PERMEABILITY AND METABOLIC STABILITY, AND LIBRARY CONTAINING SAME” (Chugai Seiyaku Kabushiki Kaisha, priority 2023, dated 2025).
Starred links: 1 amine or outer side, 2 acyl side, 3 side chain; linkers in the order of their positions; H or OH if unused. Positions of bridges follow the written chain, without caps; N, C: chain ends. Non-standard residues stand in square brackets, D forms with d. Residues, ends and D or L forms follow the SMILES beside them. *: point of attachment. NMedβ3hAla = C[C@H](CC(=O)[*:2])N(C)[*:1]; NMeF = CN[C@@H](Cc1ccccc1)C(=O)O; NMeGABA = CN(CCCC(=O)[*:2])[*:1]; NMeI = CC[C@H](C)[C@H](NC)C(=O)O; NMeT = CN[C@H](C(=O)O)[C@@H](C)O; hPhe = N[C@@H](CCc1ccccc1)C(=O)O; NMeβAla = CN(CCC(=O)[*:2])[*:1]; NMeD = CN[C@@H](CC(=O)O)C(=O)O; NMeL = CN[C@@H](CC(C)C)C(=O)O; dNMeV = CN[C@@H](C(=O)O)C(C)C; NMeV = CN[C@H](C(=O)O)C(C)C; d(β3hA) = C[C@@H](N)CC(=O)O; NMeAbu = CC[C@H](NC)C(=O)O; NMeA = CN[C@@H](C)C(=O)O; Piperidide = C1CCN(*)CC1; dNMeA = CN[C@H](C)C(=O)O; Abu = CC[C@H](N)C(=O)O; Sar = CNCC(=O)O; tBu = CC(C)(C)*

Legend:
[1] = Metabolic stability test: liver microsomal stability assay; format: in vitro ADME, mouse; conditions: mouse liver microsomes 0.5 mg protein/mL, compound 1 µM; for microsomal CLint at 1 µM: male, pH 7.4, presence of NADPH, read-out: Mouse Hepatic Microsome CLh,int NADPH(+); for Mouse Hepatic Microsome CLh,int NADPH(-): absence of NADPH
Caco-2 cells = test: Membrane permeability test using Caco-2 cells with preincubation; format: in vitro ADME; conditions: Caco-2 cells, preincubation 20 to 24 hours; apical FaSSIF/HBSS 1% DMSO pH 6.0, basal HBSS 4% BSA pH 7.4; basal sample at 180 minutes
[2] = as above; format: in vitro ADME; conditions: Caco-2; preincubation 20 to 24 hours; Apical FaSSIF/HBSS pH 6.0, Basal HBSS 4% BSA pH 7.4; 180 minutes; read-out: Caco2 Papp

microsomal CLint at 1 µM [1]	Mouse Hepatic Microsome CLh,int NADPH(-) [1]	Caco2 Papp (10^-6 cm/sec) (Caco-2 cells)	Papp A→B [2]	SMILES
42.4 µL/min/mg	31.1 µL/min/mg Protein	0.02 10^-6 cm/sec	0.02 ×10⁻⁶ cm/s	CC[C@H](C)[C@@H]1NC(=O)[C@H](CC(C)C)N(C)C(=O)[C@H](CC(C)C)NC(=O)[C@H](C)N(C)C(=O)C[C@@H](C(=O)N2CCCCC2)NC(=O)[C@H](CC(C)C)NC(=O)[C@@H]2CCCN2C(=O)[C@H](CC(C)C)N(C)C(=O)[C@H]([C@@H](C)O)NC(=O)[C@H]([C@@H](C)CC)N(C)C(=O)[C@H](Cc2ccccc2)N(C)C(=O)[C@H](C)NC(=O)[C@H](Cc2ccccc2)N(C)C(=O)[C@H](CC(C)C)NC1=O [pd027] ([NMeA]L[NMeL]IL[NMeF]A[NMeF][NMeI]T[NMeL]PLD-Piperidide; lactam N-14)
43.9 µL/min/mg	26.4 µL/min/mg Protein	0.32 10^-6 cm/sec	0.32 ×10⁻⁶ cm/s	CC[C@H](C)[C@@H]1NC(=O)[C@H](C)N(C)C(=O)C[C@@H](C(=O)N2CCCCC2)NC(=O)[C@H](CC)N(C)C(=O)[C@H](COC(C)(C)C)NC(=O)[C@H](CC(C)C)N(C)C(=O)[C@H](C)N(C)C(=O)[C@H](CC(C)C)N(C)C(=O)[C@H](Cc2ccccc2)N(C)C(=O)CN(C)C(=O)[C@H]([C@@H](C)O)NC(=O)[C@H](CC(C)C)N(C)C(=O)[C@H](C(C)C)NC(=O)[C@H](Cc2ccccc2)N(C)C1=O [pd045] ([NMeA]I[NMeF]V[NMeL]T[Sar][NMeF][NMeL][NMeA][NMeL]S(tBu)[NMeAbu]D-Piperidide; lactam N-14)
16.9 µL/min/mg	16.6 µL/min/mg Protein	0.13 10^-6 cm/sec	0.13 ×10⁻⁶ cm/s	CC[C@H](C)[C@H]1C(=O)N2CCC[C@H]2C(=O)N(C)[C@@H](C(C)C)C(=O)N(C)[C@@H](Cc2ccccc2)C(=O)N(C)[C@@H](C)C(=O)N(C)[C@@H](CC(C)C)C(=O)N[C@@H]([C@@H](C)O)C(=O)N(C)[C@@H](C)C(=O)N[C@@H](CCc2ccccc2)C(=O)N(C)[C@@H](CC(C)C)C(=O)N[C@H](C(=O)N2CCCCC2)CC(=O)N(C)CCCC(=O)N(C)[C@@H](CC(C)C)C(=O)N1C [pd124] ([NMeGABA][NMeL][NMeI]P[NMeV][NMeF][NMeA][NMeL]T[NMeA][hPhe][NMeL]D-Piperidide; lactam N-13)
28 µL/min/mg	32.0 µL/min/mg Protein	1.01 10^-6 cm/sec	1.01 ×10⁻⁶ cm/s	CC[C@H](C)[C@H]1C(=O)N[C@@H]([C@@H](C)O)C(=O)N(C)CC(=O)N(C)[C@@H](CC(C)C)C(=O)N[C@@H](CC(C)C)C(=O)N[C@H](C)CC(=O)N(C)[C@@H](C)C(=O)N[C@@H](CC(C)C)C(=O)N(C)[C@@H](C)C(=O)N(C)[C@@H](CC(C)C)C(=O)N[C@@H](COC(C)(C)C)C(=O)N(C)[C@@H](Cc2ccccc2)C(=O)N[C@@H](C(C)C)C(=O)N(C)[C@@H](CC(C)C)C(=O)N1C [pd052] (cyclo(L[NMeA][NMeL]S(tBu)[NMeF]V[NMeL][NMeI]T[Sar][NMeL]L[d(β3hA)][NMeA]))
41.3 µL/min/mg	20.1 µL/min/mg Protein	4.30 10^-6 cm/sec	4.3 ×10⁻⁶ cm/s	CC[C@@H]1NC(=O)[C@H](Cc2ccccc2)N(C)C(=O)[C@H](COC(C)(C)C)NC(=O)[C@H](CC(C)C)N(C)C(=O)[C@H](C)N(C)C(=O)[C@@H]2CCCN2C(=O)[C@H]([C@@H](C)O)NC(=O)[C@H](CC(C)C)N(C)C(=O)[C@H]([C@@H](C)CC)NC(=O)[C@H](Cc2ccccc2)N(C)C(=O)[C@H](C(C)C)NC(=O)[C@@H](C)N(C)C(=O)C[C@@H](C)NC(=O)[C@H](C(C)C)N(C)C1=O [pd012] (cyclo([Abu][NMeV][d(β3hA)][dNMeA]V[NMeF]I[NMeL]TP[NMeA][NMeL]S(tBu)[NMeF]))
22.4 µL/min/mg	16.6 µL/min/mg Protein	<0.13 10^-6 cm/sec	< 0.13 ×10⁻⁶ cm/s	CC[C@@H]1NC(=O)[C@H]([C@@H](C)O)NC(=O)[C@H](Cc2ccccc2)N(C)C(=O)[C@H](CC(C)C)N(C)C(=O)[C@H](C(C)C)N(C)C(=O)[C@H](CC)N(C)C(=O)[C@H]([C@@H](C)CC)NC(=O)[C@H](CC(C)C)N(C)C(=O)[C@H](C)N(C)C(=O)[C@H](C)NC(=O)C[C@@H](C)N(C)C(=O)[C@H](CC(C)C)N(C)C(=O)[C@H](C)N(C)C(=O)CN(C)C1=O [pd072] (cyclo(A[NMeA][NMeL]I[NMeAbu][NMeV][NMeL][NMeF]T[Abu][Sar][NMeA][NMeL][NMedβ3hAla]))
35.3 µL/min/mg	37.0 µL/min/mg Protein	0.09 10^-6 cm/sec	0.09 ×10⁻⁶ cm/s	CC(C)C[C@@H]1NC(=O)[C@H](C(C)C)N(C)C(=O)[C@H](Cc2ccccc2)N(C)C(=O)[C@H](COC(C)(C)C)NC(=O)[C@H](CC(C)C)N(C)C(=O)[C@H](C)N(C)C(=O)[C@H]([C@@H](C)O)NC(=O)[C@H](CC(C)C)N(C)C(=O)[C@H](C(C)C)N(C)C(=O)[C@H](CCc2ccccc2)NC(=O)[C@H](CC(C)C)N(C)C(=O)[C@@H](C(C)C)N(C)C(=O)C[C@@H](C(=O)N2CCCCC2)N(C)C1=O [pd161] ([dNMeV][NMeL][hPhe][NMeV][NMeL]T[NMeA][NMeL]S(tBu)[NMeF][NMeV]L[NMeD]-Piperidide; lactam N-13)
32.7 µL/min/mg	37.4 µL/min/mg Protein	0.24 10^-6 cm/sec	0.24 ×10⁻⁶ cm/s	CC[C@@H]1NC(=O)[C@H](C(C)C)N(C)C(=O)[C@H](CC(C)C)NC(=O)[C@H](CC(C)C)N(C)C(=O)[C@H]([C@@H](C)O)NC(=O)CN(C)C(=O)[C@H]([C@@H](C)CC)NC(=O)[C@H](Cc2ccccc2)N(C)C(=O)[C@H](CC(C)C)N(C)C(=O)C[C@@H](C(=O)N2CCCCC2)NC(=O)[C@H](Cc2ccccc2)N(C)C(=O)[C@H](COC(C)(C)C)NC(=O)[C@@H]2CCCN2C1=O [pd106] ([NMeL][NMeF]I[Sar]T[NMeL]L[NMeV][Abu]PS(tBu)[NMeF]D-Piperidide; lactam N-13)
17.9 µL/min/mg	19.0 µL/min/mg Protein	0.27 10^-6 cm/sec	0.27 ×10⁻⁶ cm/s	CC[C@H](C)[C@H]1C(=O)N[C@@H]([C@@H](C)O)C(=O)N(C)CC(=O)N(C)[C@@H](CC(C)C)C(=O)N(C)[C@@H](Cc2ccccc2)C(=O)N[C@H](C(=O)N2CCCCC2)CC(=O)N(C)[C@@H](C)C(=O)N[C@@H](CC(C)C)C(=O)N(C)[C@@H](Cc2ccccc2)C(=O)N(C)CCC(=O)N(C)[C@@H](CC(C)C)C(=O)N[C@@H](CC(C)C)C(=O)N(C)[C@@H](C)C(=O)N(C)[C@@H](CC)C(=O)N1C [pd003] ([NMeA]L[NMeF][NMeβAla][NMeL]L[NMeA][NMeAbu][NMeI]T[Sar][NMeL][NMeF]D-Piperidide; lactam N-14)
41.1 µL/min/mg	31.5 µL/min/mg Protein	0.16 10^-6 cm/sec	0.16 ×10⁻⁶ cm/s	CC[C@@H]1NC(=O)[C@H](Cc2ccccc2)N(C)C(=O)[C@H]([C@@H](C)CC)NC(=O)[C@H](CC(C)C)N(C)C(=O)[C@H](CC(C)C)NC(=O)CCN(C)C(=O)C[C@@H](C(=O)N2CCCCC2)NC(=O)[C@H](CC(C)C)N(C)C(=O)[C@H](C)N(C)C(=O)[C@H]([C@@H](C)O)NC(=O)[C@H](CC(C)C)N(C)C(=O)[C@H](C(C)C)NC(=O)[C@H](Cc2ccccc2)N(C)C1=O [pd101] ([NMeβAla]L[NMeL]I[NMeF][Abu][NMeF]V[NMeL]T[NMeA][NMeL]D-Piperidide; lactam N-13)
26.9 µL/min/mg	28.9 µL/min/mg Protein	0.17 10^-6 cm/sec	0.17 ×10⁻⁶ cm/s	CC[C@H](C)[C@@H]1NC(=O)[C@H](CC(C)C)N(C)C(=O)CN(C)C(=O)C[C@@H](C(=O)N2CCCCC2)N(C)C(=O)CNC(=O)[C@H](C)N(C)C(=O)[C@H](CC)N(C)C(=O)[C@H](C(C)C)N(C)C(=O)[C@H](C)N(C)C(=O)[C@H](Cc2ccccc2)N(C)C(=O)[C@H](CC(C)C)NC(=O)[C@H](Cc2ccccc2)N(C)C(=O)[C@H](C(C)C)NC(=O)[C@H](CC(C)C)N(C)C1=O [pd085] ([Sar][NMeL]I[NMeL]V[NMeF]L[NMeF][NMeA][NMeV][NMeAbu][NMeA]G[NMeD]-Piperidide; lactam N-14)
13.3 µL/min/mg	6.2 µL/min/mg Protein	0.22 10^-6 cm/sec	0.22 ×10⁻⁶ cm/s	CC[C@H]1C(=O)N(C)[C@H](C)CC(=O)N[C@H](C(C)C)C(=O)N(C)[C@@H](CC(C)C)C(=O)N(C)[C@@H](C(C)C)C(=O)N[C@@H](C)C(=O)N(C)[C@@H](CC(C)C)C(=O)NCC(=O)N(C)[C@@H]([C@@H](C)O)C(=O)N(C)[C@@H](Cc2ccccc2)C(=O)N(C)[C@@H](CC)C(=O)N[C@@H](COC(C)(C)C)C(=O)N(C)[C@@H](C)C(=O)N(C)[C@@H](C(C)C)C(=O)N1C [pd071] (cyclo(A[NMeL]G[NMeT][NMeF][NMeAbu]S(tBu)[NMeA][NMeV][NMeAbu][NMedβ3hAla][dV][NMeL][NMeV]))
40.6 µL/min/mg	30.3 µL/min/mg Protein	0.83 10^-6 cm/sec	0.83 ×10⁻⁶ cm/s	CC[C@@H]1NC(=O)[C@H](Cc2ccccc2)N(C)C(=O)[C@H](C)N(C)C(=O)[C@H](CC(C)C)N(C)C(=O)[C@H](CC(C)C)NC(=O)CCCN(C)C(=O)C[C@@H](C(=O)N2CCCCC2)NC(=O)[C@H](CC(C)C)N(C)C(=O)[C@H](C)N(C)C(=O)[C@H]([C@@H](C)O)NC(=O)[C@H](CC(C)C)N(C)C(=O)[C@H](COC(C)(C)C)NC(=O)[C@H](Cc2ccccc2)N(C)C1=O [pd109] ([NMeGABA]L[NMeL][NMeA][NMeF][Abu][NMeF]S(tBu)[NMeL]T[NMeA][NMeL]D-Piperidide; lactam N-13)
